Laboratory results from patent publication US12492232B2, “Methods for producing proteins” (South Australian Health and Medical Research Institute …, priority 2018, dated 2025).
Entries after “also recorded” stand apart in the source; their conditions may differ.

What was measured:
[1] = system: mTORC1 localisation at the lysosome; assay: Immunofluorescence of mTOR and LAMP1 colocalisation in serum-starved transfected CHO cells; assay type: cell-based; conditions: medium lacking FBS for 16 h
Procedure: 24 h after transfection cells were transferred to medium lacking FBS for 16 hours. Cells were fixed with 4% paraformaldehyde, permeabilized with 0.05% Triton X-100, blocked with 10% normal donkey serum before LAMP1 and then anti-mTOR antibodies were applied overnight. Alexa Fluor™ 488 and 594-labelled secondary antibodies were applied before cells were mounted and stained with DAPI.
24 h after transfection cells were transferred to medium lacking FBS for 16 h. Cells were fixed with 4% paraformaldehyde, permeabilized with 0.05% Triton X-100, blocked with 10% normal donkey serum before LAMP1 and mTOR antibodies were applied overnight. Alexa Fluor™ 488 and 594 secondary antibodies were applied before cells were mounted and stained with DAPI.

[2] = system: CHO cells stably expressing Gaussia luciferase (GLuc); assay: Secreted Gaussia luciferase assay in CHO cells stably expressing GLuc transfected with Rheb vectors; assay type: cell-based; conditions: for increase in secreted Gaussia luciferase: day 7, normalised to cell number
Procedure: CHO cells stably expressing Firefly luciferase (FLuc) or Gaussia luciferase (GLuc) as indicated were transfected using Lipofectamine3000 with an empty vector (EV) or vectors for Rheb WT, S21L, T23M, G29S, Y35N or E40K and also treated with the mTOR inhibitor AZD8055 at 100 nM for the total duration where indicated. Fluc and GLuc assays were performed 24 h after transfection and then every 48 h for 7 days. Assay results are normalised to cell number. GLuc-CHO cells were harvested for SDS-PAGE and Western Blot analysis at the 168 h (7-day) time-point to probe for intracellular GLuc, FLAG (Rheb) and actin, as ‘loading control’. […] However, Rheb-T23M and —Y35N caused a significant 3-fold increase in secreted Gaussia luciferase that was also seen with E40K and was prevented by treatment with AZD8055 (C/D [histogram of day 7]). In (E), secreted GLuc was monitored every 4 h from 24 h to 60 h showing the rate of secretion of GLuc was higher when Rheb-T23M is expressed as compared to Rheb-Y35N. The pattern for intracellular levels of Gaussia luciferase (assessed by immunoblot of cell lysates harvested at 7 days post transfection) more closely resemble those intracellular firefly luciferase (F) with little change compared to either the empty vector or WT while still retaining heightened mTORC1 signalling as indicated by the elevated levels of P-S6K1 Thr389 compared to cells transfected with the empty vector. CHO cells expressing Rheb-T23M, Y35N and E40K show a small increases in general protein synthesis but a marked increase in secreted Gaussia protein that is blocked by mTOR inhibition. Thus, Rheb[T23M] selectively promotes production of the secreted protein GLuc in a process that requires mTOR signalling.
Constructs were introduced into CHO cells using Lipofectamine3000 (Life Technologies) according to the manufacturer's protocol. Cell lines stably expressing secreted luciferase were generated by cloning the GLuc gene with a signal sequence from Nanolight Technology (see paper sent with this version) and cloning this into the pcDNA4 commercially available vector where gene expression was driven by a CMV promoter. The subsequent vectors were transfected, using lipofectamine, into CHO-S freestyle suspension cells and grown in CD-CHO media and then stable transfectant pools selected by addition of zeocin antibiotic. Once stable pools had emerged these were subjected to limited dilution cloning to obtain a range of pools with different secreted GLuc expression levels. Methods as are described, for example, in Josse et al. (2009) Biotechnology and Bioengineering 105: 556-566.
For Gaussia luciferase, we employed the BioLux® Gaussia Luciferase Assay Kit (New England Biolabs (NEB), Cat. No. E3300S) and for firefly luciferase the Luciferase Assay System from Promega (Cat. No. E1500). Cells were grown in Ham's F12 medium F12 nutrient mix, Ham's (Life Technologies, Cat. No. 11765054).
CHO cells stably expressing Firefly luciferase (FLuc; which is cytoplasmic) or Gaussia luciferase (GLuc; which is secreted) as indicated were transfected using Lipofectamine3000 with an empty vector (EV) or vectors for Rheb WT, S21L, T23M, G29S, Y35N or E40K and treated with the mTOR inhibitor AZD8055 at 100 nM for the total duration where appropriate. Fluc and GLuc assays were performed at 24 h after transfection and then every 48 h for 7 days. Assay results were normalised to cell number. […]

[3] = system: ExpiCHO-S™ cells; assay: Rabbit IgG secretion by ExpiCHO-S cells stably expressing Rheb variants (Easy-Titer Rabbit IgG Assay); assay type: cell-based; conditions: single replicate; compared to Rheb-WT or Rheb-Y35N
Procedure: Materials and Methods: ExpiCHO-S™ cells were purchased from ThermoFischer Scientific and cultured in ExpiCHO™ Expression Medium at 37° C. at 8% CO2. […] Transfected cells were grown in 600 μg/mL […] for 6 weeks. Surviving cells were plated as single cells in a 96-well plate and monoclonal colonies selected for FLAG-Rheb expression.
Rabbit IgG secretion was determined using the ExpiCHO™ Expression system according to the manufacturer's instructions. Briefly, ExpiCHO™ cells expressing either endogenous Rheb or stably expressing exogenous Rheb were seeded at 6×10^6 cells/mL in 25 mL of ExpiCHO™ Expression Medium and transfected with 20 μg of a pcDNA3.1 vector encoding heavy and light chains of Rabbit IgG at a 1:2 ratio of heavy chain:light chain using ExpiFectamine™ CHO Reagent. 24 hours after transfection, cells were feed with ExpiCHO™ Feed and ExpiFectamine™ CHO Enhancer and transferred to 32° C., 5% CO2. Cells were allowed to grow for 10 days with 100 μL samples taken every day. After 10 days, Cells were pelleted by centrifugation at 4000×g for 30 minutes at 4° C. and the supernatant filtered through a […] PVFD filter and collected. IgG yield was determined using Easy-Titer™ Rabbit IgG Assay kit and calculated from a standard curve.

[4] = system: mTORC1 and ER Stress activation markers; assay: Western blot for mTORC1 and ER stress activation markers in ExpiCHO cells stably expressing Rheb variants; assay type: cell-based
[5] = system: TSC1/TSC2; assay: GAP assay: TSC1/TSC2-promoted hydrolysis of GTP bound to recombinant GST-Rheb; assay type: biochemical; conditions: FLAG-TSC1, FLAG-TSC2, [α-32P]GTP, n=3
Description: FIGS. 1A-1B: Recombinant GST-Rheb proteins were subjected to GAP assay in the presence of FLAG-TSC1, FLAG-TSC2 and [α-^32P] GTP. GST-Rheb bound to GDP or GTP was pulled down using glutathione beads and the nucleotides were then separated by thin-layer chromatography and visualized by phosphorimager. The positions of GDP and GTP are shown (FIG. 1A). […] FIGS. 1C-1D: CHO cells were co-transfected using Lipofectamine 3000 with vectors encoding wildtype (WT) Rheb or the indicated mutants and TSC1/2 as indicated. 36 h after transfection, cells were transferred to Ham's F12 media lacking FBS for 16 h. Cells were the transferred to Dulbecco's phosphate-buffered saline (D-PBS, which lacks amino acids) for 1 h before cell lysates were harvested for SDS-PAGE and Western Blotting analysis using the indicated antibodies. […] This effect is consistent with lack of sensitivity of the mutant Rhebs to TSC1/TSC2. Thus the Rheb mutants S21L, T23M, G29S, Y35N and E40K promote mTORC1 signalling in the absence of upstream activation due to insensitivity to the GAP activity of the TSC complex.
A) Recombinant GST-Rheb proteins were subjected to GTPase assays in the presence of FLAG-TSC1, FLAG-TSC2 and [α-^32P]GTP. Nucleotide-bound GST-Rheb was purified from the reaction mixture using 20 μl glutathione bead slurry. Radioactive GDP and GTP were separated by thin-layer chromatography and visualized by phosphorimager.

[6] = system: mTORC1 signalling; assay: mTORC1 signalling (Western blot, S6K1 and rpS6) in transfected CHO cells starved of serum and amino acids, with or without TSC1/2 co-transfection; assay type: cell-based; conditions: for mTORC1 signalling in the absence of upstream activation: no serum 16 h, D-PBS 1 h, compared to empty vector and Rheb-WT; for mTORC1 signalling when co-transfected with TSC1/TSC2: no serum and amino acids
Procedure: GTP. GST-Rheb bound to GDP or GTP was pulled down using glutathione beads and the nucleotides were then separated by thin-layer chromatography and visualized by phosphorimager. The positions of GDP and GTP are shown (FIG. 1A). […] FIGS. 1C-1D: CHO cells were co-transfected using Lipofectamine 3000 with vectors encoding wildtype (WT) Rheb or the indicated mutants and TSC1/2 as indicated. 36 h after transfection, cells were transferred to Ham's F12 media lacking FBS for 16 h. Cells were the transferred to Dulbecco's phosphate-buffered saline (D-PBS, which lacks amino acids) for 1 h before cell lysates were harvested for SDS-PAGE and Western Blotting analysis using the indicated antibodies.

[7] = system: CHO cells stably expressing Firefly luciferase (FLuc); assay: Firefly luciferase assay in CHO cells stably expressing FLuc transfected with Rheb vectors; assay type: cell-based; conditions: day 7, normalised to cell number
Procedure: CHO cells stably expressing Firefly luciferase (FLuc) or Gaussia luciferase (GLuc) as indicated were transfected using Lipofectamine3000 with an empty vector (EV) or vectors for Rheb WT, S21L, T23M, G29S, Y35N or E40K and also treated with the mTOR inhibitor AZD8055 at 100 nM for the total duration where indicated. Fluc and GLuc assays were performed 24 h after transfection and then every 48 h for 7 days. Assay results are normalised to cell number. GLuc-CHO cells were harvested for SDS-PAGE and Western Blot analysis at the 168 h (7-day) time-point to probe for intracellular GLuc, FLAG (Rheb) and actin, as ‘loading control’. […] In (E), secreted GLuc was monitored every 4 h from 24 h to 60 h showing the rate of secretion of GLuc was higher when Rheb-T23M is expressed as compared to Rheb-Y35N. The pattern for intracellular levels of Gaussia luciferase (assessed by immunoblot of cell lysates harvested at 7 days post transfection) more closely resemble those intracellular firefly luciferase (F) with little change compared to either the empty vector or WT while still retaining heightened mTORC1 signalling as indicated by the elevated levels of P-S6K1 Thr389 compared to cells transfected with the empty vector. […]

| Compound | hydrolysis of GTP bound to Rheb promoted by TSC1/TSC2 [5] | mTORC1 signalling in the absence of upstream activation [6] | mTORC1 signalling when co-transfected with TSC1/TSC2 [6] | also measured |
| --- | --- | --- | --- | --- |
| Rheb-E40K: human Rheb protein with a lysine variant at residue 40 (E40K), SEQ ID NO. 5 | completely unable to promote hydrolysis of GTP; also recorded: did not promote hydrolysis of GTP | increased mTORC1 signalling over both the empty vector and Rheb-WT | no reduction | mTOR localisation to the lysosome (overlap with LAMP1) [1]: promote localisation; also recorded: mTORC1 localisation at the lysosome is maintained; increase in secreted Gaussia luciferase [2]: 3 fold; rate of IgG secretion determined daily over 10 days [3]: maintain a constant rate of IgG secretion over a longer period; ER stress response (Western blot markers) [4]: mild ER stress response; mTORC1 signalling (Western blot markers) [4]: increased mTORC1 signalling |
| Rheb-S21L: Rheb mutant S21L created by site-directed mutagenesis of human Rheb | completely unable to promote hydrolysis of GTP; also recorded: did not promote hydrolysis of GTP | increased mTORC1 signalling over both the empty vector and Rheb-WT | no reduction |  |
| COc1ccc(-c2ccc3c(N4CCOC[C@@H]4C)nc(N4CCOC[C@@H]4C)nc3n2)cc1CO [AZD8055, reference compound] |  |  |  | effect on the Rheb mutant-induced increase in secreted Gaussia luciferase ([2]; AZD8055 at 100 nM for the total duration): prevented |
| Q64L: Rheb mutant Q64L tested in the GAP assay [Rheb Q64L] | partial resistance; also recorded: a small degree of hydrolysis |  |  |  |
| G29S: Rheb mutant G29S created by site-directed mutagenesis of human Rheb [Rheb G29S] | partial resistance; also recorded: a small degree of hydrolysis | increased mTORC1 signalling over both the empty vector and Rheb-WT | no reduction |  |
| G63A: Rheb mutant G63A tested in the GAP assay [Rheb G63A] | completely unable to promote hydrolysis of GTP; also recorded: did not promote hydrolysis of GTP |  |  |  |
| Rheb-Y35N: human Rheb protein with an asparagine variant at residue 35 (Y35N), SEQ ID NO. 4 | completely unable to promote hydrolysis of GTP; also recorded: did not promote hydrolysis of GTP | increased mTORC1 signalling over both the empty vector and Rheb-WT | no reduction | mTOR localisation to the lysosome (overlap with LAMP1) [1]: promote localisation; also recorded: strong mTOR localisation on lysosomes; increase in secreted Gaussia luciferase [2]: 3 fold; increase in synthesis of intracellular Firefly luciferase compared to the empty vector [7]: ca. 1.2 fold |
